Here are results for five compounds from the supplement of paper PMC10307832.

The first test deals with NCI-H2085. The test can be described thus: relative viability (nuclei count vs DMSO), 5 days (fraction); higher = more cells survive. Particulars: first compound 0.8 µM. The method, boiled down:
(§1)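 Relative viability equals treated-well nuclei counts divided by vehicle-well nuclei counts. Counts came from 4× images of lung cancer cell lines grown in 1536-well plates for 5 days after pin-tool dosing on the day after seeding. Dosing used one drug alone or a fixed anchor-drug dose plus five library-drug doses (not always all listed) in √10 steps, and values are medians of duplicate plates.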
For the compound `CCCCCCCCCCCC1=C(O)C(=O)C=C(O)C1=O` [Embelin] + CS(=O)(=O)N1CCN(Cc2cc3nc(-c4cccc5[nH]ncc45)nc(N4CCOCC4)c3s2)CC1 [Pictilisib] (partner 1 µM), the relative viability stood at 0.404.

As for `CCCCCCCCCCCC1=C(O)C(=O)C=C(O)C1=O` [Embelin] + C[C@@H](Oc1cc(-c2cnn(C3CCNCC3)c2)cnc1N)c1c(Cl)ccc(F)c1Cl [Crizotinib] (partner 1 µM), the relative viability was 0.948.

Staying with this test, now noted: first compound 2.53 µM.
Compound `CCCCCCCCCCCC1=C(O)C(=O)C=C(O)C1=O` [Embelin] + O=C(CCCCCCC(=O)Nc1ccccc1)NO [Vorinostat] (partner 1 µM) returned a relative viability of 0.807.

The compound `CCCCCCCCCCCC1=C(O)C(=O)C=C(O)C1=O` [Embelin] + Cc1cc(Nc2cc(N3CCN(C)CC3)nc(Sc3ccc(NC(=O)C4CC4)cc3)n2)n[nH]1 [Tozasertib] (partner 0.1 µM) had a relative viability of 0.884.

As to `CCCCCCCCCCCC1=C(O)C(=O)C=C(O)C1=O` [Embelin] + COc1cc2c(Oc3ccc(NC(=O)C4(C(=O)Nc5ccc(F)cc5)CC4)cc3F)ccnc2cc1OCCCN1CCOCC1 [Foretinib] (partner 0.25 µM), the relative viability turned out to be 1.05.

Take `CCCCCCCCCCCC1=C(O)C(=O)C=C(O)C1=O` [Embelin] + CS(=O)(=O)N1CCN(Cc2cc3nc(-c4cccc5[nH]ncc45)nc(N4CCOCC4)c3s2)CC1 [Pictilisib] (partner 1 µM): the relative viability was 0.44.

Turning to `CCCCCCCCCCCC1=C(O)C(=O)C=C(O)C1=O` [Embelin] + C[C@@H](Oc1cc(-c2cnn(C3CCNCC3)c2)cnc1N)c1c(Cl)ccc(F)c1Cl [Crizotinib] (partner 1 µM), the relative viability was determined as 0.925.

Staying with this test, now noted: first compound 8 µM.
`CCCCCCCCCCCC1=C(O)C(=O)C=C(O)C1=O` [Embelin] + O=C(CCCCCCC(=O)Nc1ccccc1)NO [Vorinostat] (partner 1 µM) had a relative viability of 0.755.

Compound `CCCCCCCCCCCC1=C(O)C(=O)C=C(O)C1=O` [Embelin] + Cc1cc(Nc2cc(N3CCN(C)CC3)nc(Sc3ccc(NC(=O)C4CC4)cc3)n2)n[nH]1 [Tozasertib] (partner 0.1 µM) registered a relative viability of 0.859.

In the case of `CCCCCCCCCCCC1=C(O)C(=O)C=C(O)C1=O` [Embelin] + COc1cc2c(Oc3ccc(NC(=O)C4(C(=O)Nc5ccc(F)cc5)CC4)cc3F)ccnc2cc1OCCCN1CCOCC1 [Foretinib] (partner 0.25 µM), the relative viability is 0.843.

Regarding `CCCCCCCCCCCC1=C(O)C(=O)C=C(O)C1=O` [Embelin] + CS(=O)(=O)N1CCN(Cc2cc3nc(-c4cccc5[nH]ncc45)nc(N4CCOCC4)c3s2)CC1 [Pictilisib] (partner 1 µM), the relative viability was determined as 0.46.

In turn, `CCCCCCCCCCCC1=C(O)C(=O)C=C(O)C1=O` [Embelin] + C[C@@H](Oc1cc(-c2cnn(C3CCNCC3)c2)cnc1N)c1c(Cl)ccc(F)c1Cl [Crizotinib] (partner 1 µM) yielded a relative viability of 0.835.

In a further test the test system is NCI-H1651. Described as above. Particulars: first compound 0.08 µM. The method, boiled down:
as §1
With `CCCCCCCCCCCC1=C(O)C(=O)C=C(O)C1=O` [Embelin] + O=C(CCCCCCC(=O)Nc1ccccc1)NO [Vorinostat] (partner 1 µM), the relative viability was found to be 0.576.

The compound `CCCCCCCCCCCC1=C(O)C(=O)C=C(O)C1=O` [Embelin] + Cc1cc(Nc2cc(N3CCN(C)CC3)nc(Sc3ccc(NC(=O)C4CC4)cc3)n2)n[nH]1 [Tozasertib] (partner 0.1 µM) came in with a relative viability of 0.677.

Consider `CCCCCCCCCCCC1=C(O)C(=O)C=C(O)C1=O` [Embelin] + COc1cc2c(Oc3ccc(NC(=O)C4(C(=O)Nc5ccc(F)cc5)CC4)cc3F)ccnc2cc1OCCCN1CCOCC1 [Foretinib] (partner 0.25 µM), for which the relative viability came to 0.848.

Consider `CCCCCCCCCCCC1=C(O)C(=O)C=C(O)C1=O` [Embelin] + CS(=O)(=O)N1CCN(Cc2cc3nc(-c4cccc5[nH]ncc45)nc(N4CCOCC4)c3s2)CC1 [Pictilisib] (partner 1 µM), for which the relative viability amounted to 0.577.

As for `CCCCCCCCCCCC1=C(O)C(=O)C=C(O)C1=O` [Embelin] + C[C@@H](Oc1cc(-c2cnn(C3CCNCC3)c2)cnc1N)c1c(Cl)ccc(F)c1Cl [Crizotinib] (partner 1 µM), the relative viability came out at 0.855.

The test is the same for the next values; noted with them: first compound 0.8 µM.
Compound `CCCCCCCCCCCC1=C(O)C(=O)C=C(O)C1=O` [Embelin] + O=C(CCCCCCC(=O)Nc1ccccc1)NO [Vorinostat] (partner 1 µM) returned a relative viability of 0.629.

Regarding `CCCCCCCCCCCC1=C(O)C(=O)C=C(O)C1=O` [Embelin] + Cc1cc(Nc2cc(N3CCN(C)CC3)nc(Sc3ccc(NC(=O)C4CC4)cc3)n2)n[nH]1 [Tozasertib] (partner 0.1 µM), the relative viability is 0.657.

`CCCCCCCCCCCC1=C(O)C(=O)C=C(O)C1=O` [Embelin] + COc1cc2c(Oc3ccc(NC(=O)C4(C(=O)Nc5ccc(F)cc5)CC4)cc3F)ccnc2cc1OCCCN1CCOCC1 [Foretinib] (partner 0.25 µM): the relative viability was 0.865.

`CCCCCCCCCCCC1=C(O)C(=O)C=C(O)C1=O` [Embelin] + CS(=O)(=O)N1CCN(Cc2cc3nc(-c4cccc5[nH]ncc45)nc(N4CCOCC4)c3s2)CC1 [Pictilisib] (partner 1 µM) registered a relative viability of 0.647.

The compound `CCCCCCCCCCCC1=C(O)C(=O)C=C(O)C1=O` [Embelin] + C[C@@H](Oc1cc(-c2cnn(C3CCNCC3)c2)cnc1N)c1c(Cl)ccc(F)c1Cl [Crizotinib] (partner 1 µM) gave a relative viability of 0.843.

Still in this test, the particulars now being: first compound 2.53 µM.
As for `CCCCCCCCCCCC1=C(O)C(=O)C=C(O)C1=O` [Embelin] + O=C(CCCCCCC(=O)Nc1ccccc1)NO [Vorinostat] (partner 1 µM), the relative viability was determined as 0.575.

Compound `CCCCCCCCCCCC1=C(O)C(=O)C=C(O)C1=O` [Embelin] + Cc1cc(Nc2cc(N3CCN(C)CC3)nc(Sc3ccc(NC(=O)C4CC4)cc3)n2)n[nH]1 [Tozasertib] (partner 0.1 µM) gave a relative viability of 0.723.

As to `CCCCCCCCCCCC1=C(O)C(=O)C=C(O)C1=O` [Embelin] + COc1cc2c(Oc3ccc(NC(=O)C4(C(=O)Nc5ccc(F)cc5)CC4)cc3F)ccnc2cc1OCCCN1CCOCC1 [Foretinib] (partner 0.25 µM), the relative viability was determined as 0.924.

In turn, `CCCCCCCCCCCC1=C(O)C(=O)C=C(O)C1=O` [Embelin] + CS(=O)(=O)N1CCN(Cc2cc3nc(-c4cccc5[nH]ncc45)nc(N4CCOCC4)c3s2)CC1 [Pictilisib] (partner 1 µM) gave a relative viability of 0.769.

Turning to `CCCCCCCCCCCC1=C(O)C(=O)C=C(O)C1=O` [Embelin] + C[C@@H](Oc1cc(-c2cnn(C3CCNCC3)c2)cnc1N)c1c(Cl)ccc(F)c1Cl [Crizotinib] (partner 1 µM), the relative viability was found to be 0.988.

Still in this test, the particulars now being: first compound 8 µM.
Turning to `CCCCCCCCCCCC1=C(O)C(=O)C=C(O)C1=O` [Embelin] + O=C(CCCCCCC(=O)Nc1ccccc1)NO [Vorinostat] (partner 1 µM), the relative viability was 0.59.

Regarding `CCCCCCCCCCCC1=C(O)C(=O)C=C(O)C1=O` [Embelin] + Cc1cc(Nc2cc(N3CCN(C)CC3)nc(Sc3ccc(NC(=O)C4CC4)cc3)n2)n[nH]1 [Tozasertib] (partner 0.1 µM), the relative viability is 0.807.

Turning to `CCCCCCCCCCCC1=C(O)C(=O)C=C(O)C1=O` [Embelin] + COc1cc2c(Oc3ccc(NC(=O)C4(C(=O)Nc5ccc(F)cc5)CC4)cc3F)ccnc2cc1OCCCN1CCOCC1 [Foretinib] (partner 0.25 µM), the relative viability worked out at 0.769.
